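In this assay, cells in 96-well plates receive the compound at five concentrations for 48 hours. Endpoints are linearly interpolated between the surrounding concentrations. The concentration for full growth arrest is given as TGI.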
What was measured:
Assay in all cases: NCI anticancer screen, dose series, 48 h
[1] = test system: 786-0 renal
[2] = test system: A498 renal
[3] = test system: A549 NSCLC
[4] = test system: ACHN renal
[5] = test system: BT-549 breast
[6] = test system: CAKI-1 renal
[7] = test system: CCRF-CEM leukemia
[8] = test system: COLO 205 colon
[9] = test system: DU-145 prostate
[10] = test system: EKVX NSCLC
[11] = test system: HCT-116 colon
[12] = test system: HCT-15 colon
[13] = test system: HOP-62 NSCLC
[14] = test system: HOP-92 NSCLC
[15] = test system: HS 578T breast
[16] = test system: HT29 colon
[17] = test system: IGROV1 ovarian
[18] = test system: K-562 leukemia
[19] = test system: KM12 colon
[20] = test system: LOX IMVI melanoma
[21] = test system: M14 melanoma
[22] = test system: MALME-3M melanoma
[23] = test system: MCF7 breast
[24] = test system: MDA-MB-231 breast
[25] = test system: MDA-MB-435
[26] = test system: MDA-N
[27] = test system: MOLT-4 leukemia
[28] = test system: NCI-H226 lung
[29] = test system: NCI-H23 lung
[30] = test system: NCI-H460 lung
[31] = test system: NCI/ADR-RES ovarian
[32] = test system: OVCAR-3 ovarian
[33] = test system: OVCAR-4 ovarian
[34] = test system: OVCAR-5 ovarian
[35] = test system: OVCAR-8 ovarian
[36] = test system: PC-3 prostate
[37] = test system: RPMI-8226 leukemia
[38] = test system: RXF 393 renal
[39] = test system: SF-268 CNS
[40] = test system: SF-295 CNS
[41] = test system: SF-539 CNS
[42] = test system: SK-MEL-2 melanoma
[43] = test system: SK-MEL-28 melanoma
[44] = test system: SK-MEL-5 melanoma
[45] = test system: SK-OV-3 ovarian
[46] = test system: SN12C renal
[47] = test system: SNB-19 CNS
[48] = test system: SNB-75 CNS
[49] = test system: SR leukemia
[50] = test system: SW-620 colon
[51] = test system: T-47D breast
[52] = test system: TK-10 renal
[53] = test system: U251 CNS
[54] = test system: UACC-257 melanoma
[55] = test system: UACC-62 melanoma
[56] = test system: UO-31 renal
[57] = test system: HCC-2998 colon
[58] = test system: HL-60(TB) leukemia
[59] = test system: NCI-H522 lung

Question: For C=C[C@]1(O[Si](C)(C)C)C[C@@]2(C(=O)OCC)C(O)C(=O)N3CCc4cc(OC)c(OC)cc4[C@]312 (some centres undefined), which TGI [1] is on record?
Answer: > 100 µM

Question: And the TGI [2]?
Answer: > 100 µM

Question: And the TGI [3]?
Answer: > 100 µM

Question: And the TGI [4]?
Answer: > 100 µM

Question: And the TGI [5]?
Answer: > 100 µM

Question: What about the TGI [6] of the same compound?
Answer: > 100 µM

Question: And the TGI [7]?
Answer: > 100 µM

Question: What about the TGI [8] of the same compound?
Answer: > 100 µM

Question: What about the TGI [9] of the same compound?
Answer: > 100 µM

Question: And the TGI [10]?
Answer: > 100 µM

Question: And the TGI [11]?
Answer: > 100 µM

Question: What about the TGI [12] of the same compound?
Answer: > 100 µM

Question: And the TGI [13]?
Answer: > 100 µM

Question: What about the TGI [14] of the same compound?
Answer: > 100 µM

Question: And the TGI [15]?
Answer: > 100 µM

Question: What about the TGI [16] of the same compound?
Answer: > 100 µM

Question: And the TGI [17]?
Answer: > 100 µM

Question: And the TGI [18]?
Answer: > 100 µM

Question: What about the TGI [19] of the same compound?
Answer: > 100 µM

Question: And the TGI [20]?
Answer: > 100 µM

Question: What about the TGI [21] of the same compound?
Answer: > 100 µM

Question: What about the TGI [22] of the same compound?
Answer: > 100 µM

Question: And the TGI [23]?
Answer: > 100 µM

Question: What about the TGI [24] of the same compound?
Answer: > 100 µM

Question: What about the TGI [25] of the same compound?
Answer: > 100 µM

Question: What about the TGI [26] of the same compound?
Answer: > 100 µM

Question: And the TGI [27]?
Answer: > 100 µM

Question: What about the TGI [28] of the same compound?
Answer: > 100 µM

Question: What about the TGI [29] of the same compound?
Answer: > 100 µM

Question: And the TGI [30]?
Answer: > 100 µM

Question: And the TGI [31]?
Answer: > 100 µM

Question: What about the TGI [32] of the same compound?
Answer: > 100 µM

Question: What about the TGI [33] of the same compound?
Answer: > 100 µM

Question: What about the TGI [34] of the same compound?
Answer: > 100 µM

Question: And the TGI [35]?
Answer: > 100 µM

Question: What about the TGI [36] of the same compound?
Answer: > 100 µM

Question: And the TGI [37]?
Answer: > 100 µM

Question: And the TGI [38]?
Answer: > 100 µM

Question: What about the TGI [39] of the same compound?
Answer: > 100 µM

Question: What about the TGI [40] of the same compound?
Answer: > 100 µM

Question: And the TGI [41]?
Answer: > 100 µM

Question: And the TGI [42]?
Answer: > 100 µM

Question: What about the TGI [43] of the same compound?
Answer: > 100 µM

Question: And the TGI [44]?
Answer: > 100 µM

Question: And the TGI [45]?
Answer: > 100 µM

Question: What about the TGI [46] of the same compound?
Answer: > 100 µM

Question: What about the TGI [47] of the same compound?
Answer: > 100 µM

Question: What about the TGI [48] of the same compound?
Answer: > 100 µM

Question: What about the TGI [49] of the same compound?
Answer: > 100 µM

Question: And the TGI [50]?
Answer: > 100 µM

Question: And the TGI [51]?
Answer: > 100 µM

Question: And the TGI [52]?
Answer: > 100 µM

Question: And the TGI [53]?
Answer: > 100 µM

Question: And the TGI [54]?
Answer: > 100 µM

Question: And the TGI [55]?
Answer: > 100 µM

Question: And the TGI [56]?
Answer: > 100 µM

Question: O=C(/C=C(\Nc1ccccc1O)c1ccc(Br)cc1)C(Cl)(Cl)Cl was tested. Which TGI [1] did it give?
Answer: 27.6 µM

Question: And the TGI [3]?
Answer: 12.4 µM

Question: And the TGI [4]?
Answer: 14.9 µM

Question: And the TGI [5]?
Answer: 28.5 µM

Question: What about the TGI [6] of the same compound?
Answer: 20.7 µM

Question: And the TGI [7]?
Answer: 36.7 µM

Question: And the TGI [8]?
Answer: 22.1 µM

Question: What about the TGI [9] of the same compound?
Answer: 13.8 µM

Question: And the TGI [10]?
Answer: 13.9 µM

Question: And the TGI [57]?
Answer: 5.88 µM

Question: What about the TGI [11] of the same compound?
Answer: 22.4 µM

Question: And the TGI [12]?
Answer: 25.9 µM

Question: What about the TGI [58] of the same compound?
Answer: 9.39 µM

Question: What about the TGI [13] of the same compound?
Answer: 31.6 µM

Question: What about the TGI [14] of the same compound?
Answer: 15.4 µM

Question: And the TGI [15]?
Answer: 18.1 µM

Question: And the TGI [16]?
Answer: 20.8 µM

Question: What about the TGI [17] of the same compound?
Answer: 23.7 µM

Question: And the TGI [18]?
Answer: 32.5 µM

Question: And the TGI [19]?
Answer: 13.9 µM

Question: And the TGI [20]?
Answer: 32.9 µM

Question: And the TGI [21]?
Answer: 29.2 µM

Question: And the TGI [22]?
Answer: 29.2 µM

Question: What about the TGI [23] of the same compound?
Answer: 20 µM

Question: And the TGI [24]?
Answer: 20.3 µM

Question: And the TGI [25]?
Answer: 21.8 µM

Question: And the TGI [26]?
Answer: 17.3 µM

Question: And the TGI [27]?
Answer: 33.7 µM

Question: And the TGI [28]?
Answer: 26.5 µM

Question: And the TGI [29]?
Answer: 26.1 µM

Question: What about the TGI [30] of the same compound?
Answer: 12.9 µM

Question: What about the TGI [59] of the same compound?
Answer: 30.2 µM

Question: What about the TGI [31] of the same compound?
Answer: 25.1 µM

Question: What about the TGI [32] of the same compound?
Answer: 18.5 µM

Question: And the TGI [33]?
Answer: 19.2 µM

Question: What about the TGI [34] of the same compound?
Answer: 24.5 µM

Question: What about the TGI [35] of the same compound?
Answer: 27 µM

Question: What about the TGI [36] of the same compound?
Answer: 11.9 µM

Question: And the TGI [37]?
Answer: 7.29 µM

Question: And the TGI [38]?
Answer: 19.2 µM

Question: What about the TGI [39] of the same compound?
Answer: 25.8 µM

Question: What about the TGI [40] of the same compound?
Answer: 20 µM

Question: What about the TGI [41] of the same compound?
Answer: 27.1 µM

Question: What about the TGI [42] of the same compound?
Answer: 20.7 µM

Question: What about the TGI [43] of the same compound?
Answer: 24.6 µM

Question: What about the TGI [44] of the same compound?
Answer: 27.7 µM

Question: What about the TGI [45] of the same compound?
Answer: 16 µM

Question: And the TGI [46]?
Answer: 20 µM

Question: What about the TGI [47] of the same compound?
Answer: 20.3 µM

Question: And the TGI [48]?
Answer: 26.8 µM

Question: And the TGI [49]?
Answer: 36.7 µM

Question: And the TGI [50]?
Answer: 16.5 µM

Question: What about the TGI [51] of the same compound?
Answer: 20.2 µM

Question: What about the TGI [52] of the same compound?
Answer: 19.1 µM

Question: What about the TGI [53] of the same compound?
Answer: 15.4 µM

Question: What about the TGI [54] of the same compound?
Answer: 20.1 µM

Question: And the TGI [55]?
Answer: 26.3 µM

Question: And the TGI [56]?
Answer: 10.8 µM
